How the values were obtained:
[1] = test system: cucumber Gray mold fungus; experiment: Test Example 2: cucumber Gray mold control test, foliar spray on potted cucumber, disease spot diameter indices; format: in vivo; conditions: sum over 8 cucumber leaves, index 0 (spot 0 mm) to 5 (over 20 mm), 12° C. humid
Procedure: (§1) A plastic pot was stuffed with sand loam, and cucumber was sowed, and grown for 12 days in a greenhouse. A compound (Ia), compound (Ib), compound (III) and compound (IV) were prepared into flowable formulations according to the following preparation method, and the resultant flowable formulations were diluted with water, then, mixed to prepare a treatment solution containing the compound (Ia) and compound (III) of prescribed concentrations, a treatment solution containing the compound (Ib) and compound (III) of prescribed concentrations, a treatment solution containing the compound (Ia) and compound (IV) of prescribed concentrations, and a treatment solution containing the compound (Ib) and compound (IV) of prescribed concentrations. The treatment solutions were sprayed on stems and leaves so as to fully adhere to the leaf surfaces of the cucumber. After spraying, the plant was air-dried, and a PDA medium containing spores of cucumber Gray mold fungus was placed on the cucumber leaf surface. Thereafter, it was left under humid condition at 12° C., then, a control effect thereof was checked.
Further, wettable powders of the compound (Ia), compound (Ib), compound (III) and compound (IV) each were diluted with water to prescribed concentrations to prepare respective treatment solutions, which were subjected to a parallel test.
In checking of the control effect, the disease spot diameter was measured for 8 leaves of cucumber. A case of a disease spot diameter of 0 mm was evaluated as a controlling index of 0, a case of a disease spot diameter of 1 to 5 mm was evaluated as a controlling index of 1, a case of a disease spot diameter of 5 to 10 mm was evaluated as a controlling index of 2, a case of a disease spot diameter of 10 to 15 mm was evaluated as a controlling index of 3, a case of a disease spot diameter of 15 to 20 mm was evaluated as a controlling index of 4, and a case of a disease spot diameter of over 20 mm was evaluated as a controlling index of 5.
A compound (Ia), compound (Ib), compound (III) or compound (IV) (10 parts), a mixture (35 parts) of white carbon and polyoxyethylene alkyl ether sulfate ammonium salt (weight ratio 1:1) and water (55 parts) were mixed, and finely ground by a wet grinding method to obtain respective flowable formulations.

[2] = test system: cucumber Gray mold fungus; experiment: Test Example 1: cucumber Gray mold control test, foliar spray on potted cucumber; format: in vivo; conditions: spray on cucumber stems and leaves, 6 days at 12° C. humid
Procedure: as §1, with “(Ib)” for “(Ib), compound (III)”, “(II)” for “(IV)”, “(II)” for “(III) of prescribed concentrations, a treatment solution containing the compound (Ib) and compound (III) of prescribed concentrations, a treatment solution containing the compound (Ia) and compound (IV)”, “left for 6 days at 12° C.” for “left”, “condition,” for “condition at 12° C.,”
Further, wettable powders of the compound (Ia), compound (Ib) and compound (II) each were diluted with water to prescribed concentrations to prepare respective treatment solutions, which were subjected to a parallel test.
In checking, evaluation indices described later were used. According to formula 1, the pathogenesis degree was calculated, and based on the pathogenesis degree, a controlling value (%) was calculated using formula 2.
A compound (Ia), compound (Ib) or compound (II) (10 parts), a mixture (35 parts) of white carbon and polyoxyethylene alkyl ether sulfate ammonium salt (weight ratio 1:1) and water (55 parts) were mixed, and finely ground by a wet grinding method to obtain respective flowable formulations.
• 0: disease spot diameter, 0 mm • 1: disease spot diameter, 1 to 5 mm • 2: disease spot diameter, 5 to 10 mm • 3: disease spot diameter, 10 to 15 mm • 4: disease spot diameter, 15 to 20 mm • 5: disease spot diameter, over 20 mm pathogenesis degree=Σ(evaluation index of checked leaf)×100/(5×number of checked leaves) Formula 1 controlling value (%)=100×(A−B)/A Formula 2 • A: pathogenesis degree of plant in non-treated district • B: pathogenesis degree of plant in treated district

[3] = active ingredient concentration 5 ppm
[4] = active ingredient concentration 2.5 ppm
[5] = active ingredient concentration 10 ppm
[6] = active ingredient concentration 20 ppm
[7] = active ingredient concentration 40 ppm

SMILES	sum of controlling indices [1, 3]	sum of controlling indices [1, 4]	controlling value [2, 5] [%]	controlling value [2, 4] [%]	controlling value [2, 6] [%]	sum of controlling indices [1, 5]	sum of controlling indices [1, 6]	controlling value [2, 3] [%]	controlling value [2, 7] [%]	sum of controlling indices [1, 7]
CC#Cc1cc(C)nc(Nc2ccccc2)n1 [compound (III), 4-methyl-N-phenyl-6-(1-propynyl)-2-pyrimidinamine, reference compound]	10									
Cc1cc(C2CC2)nc(Nc2ccccc2)n1 [compound (IV), 4-cyclopropyl-6-methyl-N-phenyl-2-pyrimidinamine, reference compound]	9	24								
Cc1cc(C)nc(Nc2ccccc2)n1 [compound (II), 4,6-dimethyl-N-phenyl-2-pyrimidinamine, reference compound]			30							
CNC(=O)[C@H](OC)c1ccccc1COc1cc(C)ccc1C [compound (Ia)]	25	27	60	48	68	24	23			
CNC(=O)C(OC)c1ccccc1COc1cc(C)ccc1C (stereo not drawn) [compound (Ib)]	25				60	26	24	48	68	24

Source: patent US8592438B2, “Plant disease control composition” (Sumitomo Chemical Intellectual Property Service, Ltd, priority 2008, dated 2013)
